Experiment [1] can be described thus: Inhibition of wild type Streptococcus pneumoniae LigA.
The nature of experiment [2]: Inhibition of Enterococcus faecalis LigA.
The target of a further experiment is DNA ligase (Staphylococcus aureus, UniProt Q9AIU7). Kind of experiment: Inhibition of Staphylococcus aureus LigA.
The nature of experiment [3]: Inhibition of Haemophilus influenzae LigA.
For experiment [4], the system named is Streptococcus pneumoniae. Kind of experiment: Antibacterial activity against Streptococcus pneumoniae ARC548. The class given is functional.
Experiment [5] is described as follows: Inhibition of Streptococcus pneumoniae LigA L75F mutant.
Experiment [6] relates to Streptococcus pneumoniae. Kind of experiment: Selectivity ratio of IC50 for Streptococcus pneumoniae LigA L75F mutant to IC50 for wild type Streptococcus pneumoniae LigA.

Structures are written as SMILES. In brackets after ≈: the same amount, converted by molar mass.

DNA ligase, sequence (Q9AIU7 whole entry): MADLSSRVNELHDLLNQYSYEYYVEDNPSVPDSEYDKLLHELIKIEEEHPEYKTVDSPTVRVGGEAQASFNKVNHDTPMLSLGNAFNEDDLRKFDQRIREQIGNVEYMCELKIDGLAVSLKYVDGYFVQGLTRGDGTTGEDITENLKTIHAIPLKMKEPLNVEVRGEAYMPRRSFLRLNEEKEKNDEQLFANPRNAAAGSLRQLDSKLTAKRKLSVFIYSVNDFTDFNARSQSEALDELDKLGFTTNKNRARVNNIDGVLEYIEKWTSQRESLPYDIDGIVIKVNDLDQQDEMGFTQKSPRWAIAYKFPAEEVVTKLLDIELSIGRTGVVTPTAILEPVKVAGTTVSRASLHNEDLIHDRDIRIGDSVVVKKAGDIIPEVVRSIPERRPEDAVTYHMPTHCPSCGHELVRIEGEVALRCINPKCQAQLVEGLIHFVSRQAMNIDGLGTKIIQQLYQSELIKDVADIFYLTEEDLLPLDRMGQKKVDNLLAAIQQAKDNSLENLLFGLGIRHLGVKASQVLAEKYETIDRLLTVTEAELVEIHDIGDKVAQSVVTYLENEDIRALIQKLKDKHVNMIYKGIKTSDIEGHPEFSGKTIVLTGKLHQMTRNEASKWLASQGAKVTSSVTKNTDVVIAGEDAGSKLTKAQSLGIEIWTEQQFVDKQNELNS

Consider `NC(=O)c1cnc(N)c2c(C(N)=O)csc12`, for which the IC50 was 52 µM in experiment [1], more than 200 µM in experiment [2], 69 µM on DNA ligase and more than 200 µM in experiment [3].
For the compound `CCCNc1ncc(C(N)=O)c2sc(Br)cc12`, the IC50 turned out to be 150 µM in experiment [1], 130 µM in experiment [2], 180 µM at DNA ligase and 200 µM in experiment [3].
As to `CCOC(=O)c1cc2c(N)ncc(C(N)=O)c2s1`, the IC50 in experiment [1] is 9.4 µM; in experiment [2], 74 µM; against DNA ligase, 8.9 µM; in experiment [3], more than 200 µM.
For `NC(=O)c1cnc(NCCO)c2cc(Br)sc12`, in that order: more than 200 µM, more than 200 µM, more than 200 µM and more than 200 µM.
The matching figures for `NC(=O)c1cnc(N)c2c(-c3ccn[nH]3)csc12`: 100 µM, more than 200 µM, more than 200 µM and more than 200 µM.
Turning to `Nc1nc(OC2CCCC2)nc2c1ncn2[C@@H]1O[C@H](CO)[C@@H](O)[C@H]1O`, it took 8 µg/mL (≈ 22.8 µM) to inhibit growth in the experiment with Streptococcus pneumoniae [4] (MIC). The IC50 was 33 µM in experiment [5], 0.21 µM in experiment [1], 0.43 µM against DNA ligase and 0.51 µM in experiment [3].
For the compound `NC(=O)c1cnc(N)c2cc(-c3ccn[nH]3)sc12`, the IC50 is 29 µM in experiment [1], 100 µM in experiment [2], 36 µM on DNA ligase and more than 200 µM in experiment [3].
Regarding `CCNC(=O)c1cc2c(N)ncc(C(N)=O)c2s1`, the 50% inhibitory concentration (IC50) in experiment [1] is 140 µM; in experiment [2], more than 200 µM; against DNA ligase, 75 µM; in experiment [3] it was more than 200 µM.
As for `NC(=O)c1cnc(N)c2ccsc12`, the IC50 in experiment [1] was 25 µM; in experiment [2], more than 200 µM; on DNA ligase, more than 200 µM; in experiment [3], more than 200 µM.
In turn, `NC(=O)c1cnc(N)c2cc(Br)sc12` returned an MIC in the experiment on Streptococcus pneumoniae [4] of more than 64 µg/mL. Besides, the IC50 in experiment [5] was 48 µM; in experiment [1], 21 µM; in experiment [2] it was 77 µM; on DNA ligase, 48 µM; in experiment [3], 160 µM. The Ratio IC50 with Streptococcus pneumoniae [6] turned out to be 2.
On to `Cc1cc2c(N)ncc(C(N)=O)c2s1`, for which the IC50 in experiment [1] was 200 µM; in experiment [2], more than 200 µM; against DNA ligase, more than 200 µM; in experiment [3], more than 200 µM.
Consider `NC(=O)c1cnc(N)c2c(Br)csc12`, for which the IC50 in experiment [1] is 36 µM; in experiment [2], 130 µM; against DNA ligase, 39 µM; in experiment [3], more than 200 µM.
For `NC(=O)c1cc2c(N)ncc(C(N)=O)c2s1`, in that order: 9.4 µM, 34 µM, 15 µM and more than 200 µM.
For the compound `NC(=O)c1cnc(Nc2ccccc2)c2cc(Br)sc12`, the half-maximal inhibitory concentration (IC50) was more than 200 µM in experiment [1], 160 µM in experiment [2], 150 µM on DNA ligase and 160 µM in experiment [3].
In the case of `Cc1c(Br)sc2c(C(N)=O)cnc(N)c12`, the 50% inhibitory concentration (IC50) is 37 µM in experiment [5]; 3.1 µM in experiment [1]; 8.1 µM in experiment [2]; 7.1 µM on DNA ligase; more than 200 µM in experiment [3].
On to `Cc1csc2c(C(N)=O)cnc(N)c12`, for which the IC50 in experiment [1] is more than 140 µM; in experiment [2] it was more than 200 µM; on DNA ligase, more than 200 µM; in experiment [3], more than 200 µM.

Source of the values: ChEMBL document CHEMBL3098126, “Identification through structure-based methods of a bacterial NAD(+)-dependent DNA ligase inhibitor that avoids known resistance mutations” (Bioorg Med Chem Lett, 2014).
